Data as given in PubChem BioAssay (NCI).
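Grown in 96-well plates, cells were treated for 48 hours with each compound at five concentrations. Insufficient inhibition: endpoint recorded as highest concentration tested. GI50: concentration for 50% inhibition of growth. TGI is the concentration that stops growth completely.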

Experiments:
Test in all cases: DTP human tumour cell line panel, 48 h
SNB-19 CNS = tested on: SNB-19 CNS
HCT-116 colon = tested on: HCT-116 colon
K-562 leukemia = tested on: K-562 leukemia
MDA-MB-435 = tested on: MDA-MB-435
TK-10 renal = tested on: TK-10 renal
A549 NSCLC = tested on: A549 NSCLC
CCRF-CEM leukemia = tested on: CCRF-CEM leukemia
SF-539 CNS = tested on: SF-539 CNS
T-47D breast = tested on: T-47D breast
PC-3 prostate = tested on: PC-3 prostate
MCF7 breast = tested on: MCF7 breast
A498 renal = tested on: A498 renal
COLO 205 colon = tested on: COLO 205 colon
HOP-92 NSCLC = tested on: HOP-92 NSCLC
NCI-H226 lung = tested on: NCI-H226 lung
SW-620 colon = tested on: SW-620 colon
HT29 colon = tested on: HT29 colon
EKVX NSCLC = tested on: EKVX NSCLC
SN12C renal = tested on: SN12C renal
SF-268 CNS = tested on: SF-268 CNS
HS 578T breast = tested on: HS 578T breast
SNB-75 CNS = tested on: SNB-75 CNS
OVCAR-8 ovarian = tested on: OVCAR-8 ovarian
DU-145 prostate = tested on: DU-145 prostate
KM12 colon = tested on: KM12 colon
SR leukemia = tested on: SR leukemia
UACC-62 melanoma = tested on: UACC-62 melanoma
NCI/ADR-RES ovarian = tested on: NCI/ADR-RES ovarian
HCC-2998 colon = tested on: HCC-2998 colon
M14 melanoma = tested on: M14 melanoma
OVCAR-5 ovarian = tested on: OVCAR-5 ovarian
SK-MEL-28 melanoma = tested on: SK-MEL-28 melanoma
ACHN renal = tested on: ACHN renal
786-0 renal = tested on: 786-0 renal
U251 CNS = tested on: U251 CNS
CAKI-1 renal = tested on: CAKI-1 renal
NCI-H460 lung = tested on: NCI-H460 lung
HCT-15 colon = tested on: HCT-15 colon
SK-OV-3 ovarian = tested on: SK-OV-3 ovarian
LOX IMVI melanoma = tested on: LOX IMVI melanoma
SK-MEL-5 melanoma = tested on: SK-MEL-5 melanoma
MALME-3M melanoma = tested on: MALME-3M melanoma
UO-31 renal = tested on: UO-31 renal
NCI-H522 lung = tested on: NCI-H522 lung
MDA-MB-231 breast = tested on: MDA-MB-231 breast
OVCAR-4 ovarian = tested on: OVCAR-4 ovarian
MOLT-4 leukemia = tested on: MOLT-4 leukemia
SF-295 CNS = tested on: SF-295 CNS
RXF 393 renal = tested on: RXF 393 renal
BT-549 breast = tested on: BT-549 breast
SK-MEL-2 melanoma = tested on: SK-MEL-2 melanoma

C#CC(=O)Nc1cccc2c1cc(C)n2-c1nc2c(c(NCc3ccccc3)n1)CCCC2
GI50 (SNB-19 CNS): 845 nM | TGI (SNB-19 CNS): 2660 nM | GI50 (HCT-116 colon): 174 nM | TGI (HCT-116 colon): 415 nM | GI50 (K-562 leukemia): 368 nM | TGI (K-562 leukemia): 3450 nM | GI50 (MDA-MB-435): 463 nM | TGI (MDA-MB-435): 1660 nM | GI50 (TK-10 renal): 1660 nM | TGI (TK-10 renal): 3090 nM | GI50 (A549 NSCLC): 1970 nM | TGI (A549 NSCLC): 4100 nM | GI50 (CCRF-CEM leukemia): 25.5 nM | TGI (CCRF-CEM leukemia): 60.5 nM | GI50 (SF-539 CNS): 172 nM | TGI (SF-539 CNS): 337 nM | GI50 (T-47D breast): 697 nM | TGI (T-47D breast): 3330 nM | GI50 (PC-3 prostate): 186 nM | TGI (PC-3 prostate): 351 nM | GI50 (MCF7 breast): 226 nM | TGI (MCF7 breast): 1230 nM | GI50 (A498 renal): 1750 nM | TGI (A498 renal): 3740 nM | GI50 (COLO 205 colon): 267 nM | TGI (COLO 205 colon): 803 nM | GI50 (HOP-92 NSCLC): 142 nM | TGI (HOP-92 NSCLC): 315 nM | GI50 (NCI-H226 lung): 250 nM | TGI (NCI-H226 lung): 644 nM | GI50 (SW-620 colon): 200 nM | TGI (SW-620 colon): 461 nM | GI50 (HT29 colon): 54.3 nM | TGI (HT29 colon): 121 nM | GI50 (EKVX NSCLC): 1310 nM | TGI (EKVX NSCLC): 2960 nM | GI50 (SN12C renal): 70.6 nM | TGI (SN12C renal): 427 nM | GI50 (SF-268 CNS): 199 nM | TGI (SF-268 CNS): 438 nM | GI50 (HS 578T breast): 353 nM | TGI (HS 578T breast): 3070 nM | GI50 (SNB-75 CNS): 141 nM | TGI (SNB-75 CNS): 294 nM | GI50 (OVCAR-8 ovarian): 136 nM | TGI (OVCAR-8 ovarian): 779 nM | GI50 (DU-145 prostate): 1180 nM | TGI (DU-145 prostate): 2540 nM | GI50 (KM12 colon): 213 nM | TGI (KM12 colon): 546 nM | GI50 (SR leukemia): < 20.1 nM | TGI (SR leukemia): 50.7 nM | GI50 (UACC-62 melanoma): 165 nM | TGI (UACC-62 melanoma): 351 nM | GI50 (NCI/ADR-RES ovarian): 127 nM | TGI (NCI/ADR-RES ovarian): 645 nM | GI50 (HCC-2998 colon): 335 nM | TGI (HCC-2998 colon): 1000 nM | GI50 (M14 melanoma): 303 nM | TGI (M14 melanoma): 1130 nM | GI50 (OVCAR-5 ovarian): 279 nM | TGI (OVCAR-5 ovarian): 977 nM | GI50 (SK-MEL-28 melanoma): 1220 nM | TGI (SK-MEL-28 melanoma): 2790 nM | GI50 (ACHN renal): 273 nM | TGI (ACHN renal): 786 nM | GI50 (786-0 renal): 18.9 nM | TGI (786-0 renal): 35.9 nM | GI50 (U251 CNS): 178 nM | TGI (U251 CNS): 338 nM | GI50 (CAKI-1 renal): 478 nM | TGI (CAKI-1 renal): 942 nM | GI50 (NCI-H460 lung): 759 nM | TGI (NCI-H460 lung): 2590 nM | GI50 (HCT-15 colon): 167 nM | TGI (HCT-15 colon): 409 nM | GI50 (SK-OV-3 ovarian): 519 nM | TGI (SK-OV-3 ovarian): 1090 nM | GI50 (LOX IMVI melanoma): < 13.2 nM | TGI (LOX IMVI melanoma): < 18.4 nM | GI50 (SK-MEL-5 melanoma): 98.5 nM | TGI (SK-MEL-5 melanoma): 259 nM | GI50 (MALME-3M melanoma): 54.7 nM | TGI (MALME-3M melanoma): 195 nM | GI50 (UO-31 renal): 46.6 nM | TGI (UO-31 renal): 124 nM | GI50 (NCI-H522 lung): 17.4 nM | TGI (NCI-H522 lung): 37.2 nM | GI50 (MDA-MB-231 breast): 57.8 nM | TGI (MDA-MB-231 breast): 261 nM | GI50 (OVCAR-4 ovarian): 208 nM | TGI (OVCAR-4 ovarian): 491 nM | GI50 (MOLT-4 leukemia): 150 nM | TGI (MOLT-4 leukemia): 443 nM | GI50 (SF-295 CNS): 207 nM | TGI (SF-295 CNS): 510 nM | GI50 (RXF 393 renal): 152 nM | TGI (RXF 393 renal): 311 nM | GI50 (BT-549 breast): 137 nM | TGI (BT-549 breast): 324 nM | GI50 (SK-MEL-2 melanoma): 1250 nM | TGI (SK-MEL-2 melanoma): 2920 nM
